Each block holds one molecule with its values, some of them ahead of it.
Tests used:
[1] = Tissue distribution test in mice; assay type: in vivo; design: content in the brain (tissue distribution): unit not given here; conditions: 16 mg/kg subcutaneous injection
[2] = test system: reserpine-induced mice depression; test: Reserpine-induced mice depression; assay type: in vivo, ICR mouse; design: Awakening / Finger contact / Head touch / Fear / Autonomic activity / Eyelid closure / Upright: scale not given here; conditions: for Autonomic activity / Awakening / Eyelid closure / Fear / Finger contact / Head touch / Upright: 2 h after reserpine 4 mg/kg
Description: • Species: ICR mouse • Microbiological level: SPF • Quantity and sex of the animals purchased: male: 75; female: 75 • Quantity and sex of the animals used: male: 75; female: 75 • Body weight: 13-18 g when accepted
Group design: there were 50 pieces for each batch of animals and 3 batches in total; each batch of animals were randomly divided into 5 groups; low, middle and high-dose groups of the samples for test, blank control group and model group; a sample for test was tested per batch.
3.1 Animals were administrated via subcutaneous injection per day with doses of 4, 8 and 16 mg/kg for 6 d in total. 2 h later after the final administration, each animal was subcutaneously injected with 4 mg/kg reserpine except the blank control group; afterwards, indicators, such as, awakening, finger contact, fear, head touch, autonomic activity, upright and eyelid closure were determined 2 h later.
Data statistics and analysis were completed via a computer by SPSS 17.0 software and office 2016, and data statistics was inspected by Kruskal-Wallis. If the Kruskal-Wallis inspection result is significant ((P<0.05), multiple comparison inspection is further performed by a Mann-Whitney U nonparametric test method.

[3] = test system: mice pain response induced by hot plate; test: Mice pain response induced by hot plate; assay type: in vivo, ICR mice; conditions: hot plate 55°C, positive control 10 mg/kg ig 7 d
Description: Female ICR mice (20±2) g were placed on an intelligent hot plate at 55±0.5° C., and latency (s) that the plantar of mice touched the hot plate until the occurrence of a hind paws licking response served as a pain threshold indicator; the mice (response latency <5 s or >30 s) or jumping mice were eliminated.
Grouping and administration were the same as those in Example 40.
The mice were continuously administered intragastrically for 7 consecutive days; the pain threshold of each group of mice was respectively determined once at 30, 60, 90 and 120 min after the final administration; the pain threshold greater than 60 s was calculated by 60 s.

[4] = test system: mice with inflammatory pain; test: Pain threshold of mice with inflammatory pain (complete Freund's adjuvant); assay type: in vivo, SD mice; conditions: complete Freund's adjuvant paw model, positive control 10 mg/kg ig once per day
Description: […] (180±20) g were injected with a complete Freund’s adjuvant (50 µL/piece) at the right rear plantar of mice, and mice in the control group were injected with the corresponding volume of 0.5% sodium carboxymethylcellulose to establish a paw edema inflammatory pain model. After modeling, the mice were administered for 7 d continuously, and administered intragastrically once per day. Pain thresholds (s) of the mice were respectively determined on the 1st, 3rd and 7th day before administration and after modeling at different periods of time.
Grouping and administration were the same as those of Example 40.

[5] = test system: mice writhing caused by acetic acid; test: Mice writhing caused by acetic acid; conditions: positive control 10 mg/kg ig
Description: Each compound was prepared into a suspension by 0.5% sodium carboxymethylcellulose respectively, and then set according to the dose, and each administration group was administered intragastrically; the model group was administered intragastrically an equal volume of 0.5% sodium carboxymethylcellulose.
Mice were intraperitoneally injected with acetic acid to cause a large area and more lasting painful stimuli in deep enterocoelia, causing mice to produce writhing responses. After being administered for 1 h, each dose group was intraperitoneally injected with 0.7% acetic acid-normal saline solution (0.1 ml/10 g).
The time (pain latent time) that the mice started to appear writhing after being intraperitoneally injected with acetic acid was recorded.
The writhing response times of each mouse within 20 min were recorded after injecting acetic acid to cause pain, and then, the writhing inhibition ratio of each administration group was calculated.
Writhing inhibition ratio = [(writhing times of the control group -writhing times of the administration group)/writhing times of the control group] × 100%
Experimental data is shown by x±s and subjected to variance analysis by SPSS 15.0 software.

[6] = target: T1, recombinant human protein MAGL (Homo sapiens, UniProt Q99685); test: MAGL enzyme analysis (Cayman MAGL inhibitor screening kit); assay type: biochemical; conditions: 4-nitrophenylacetic acid substrate, absorbance 410 nm, read-out: MAGLXIC50
T1 construct: purchased Cayman
T1 sequence (Q99685 1-303): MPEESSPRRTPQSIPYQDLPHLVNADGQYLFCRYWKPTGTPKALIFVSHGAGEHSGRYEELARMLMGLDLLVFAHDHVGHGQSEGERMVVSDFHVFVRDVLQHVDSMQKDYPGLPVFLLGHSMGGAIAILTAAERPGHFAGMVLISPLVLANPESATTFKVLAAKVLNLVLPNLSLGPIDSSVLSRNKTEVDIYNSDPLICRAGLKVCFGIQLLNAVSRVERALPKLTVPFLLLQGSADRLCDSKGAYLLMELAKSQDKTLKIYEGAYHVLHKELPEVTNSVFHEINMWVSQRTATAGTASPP
Description: 150 µL 1Xassay buffer, 10 µL recombinant human protein MAGL and 10 µL different concentrations of MAGL inhibitors (six points within 1 nM to 1000 nM) were added to per well of a 96-well plate. JZL195 (a positive control inhibitor) served as a positive control well, after incubation for 5 min at room temperature, per well was added with 10 µL MAGL substrate, and […] were vibrated for 10 s and placed for 10 min at room temperature, then an absorbance was detected at 410 nm. […] Graphad Prism 5.0 was taken to calculate IC50 curves fitting each inhibitor.

[7] = test system: reserpine-induced mice migraine; test: Reserpine-induced mice migraine; assay type: in vivo, ICR mice
Description: The mice in the blank control group and model group were administered intragastrically via a solvent from the 5th day after modeling, and the rest groups of mice were respectively administered corresponding medicaments and doses for intragastric administration for 10 consecutive days; 1 h later after the final administration, the mice were weighed; blood was taken at inner canthus to detect blood coagulation time; whole blood was taken, and cerebrum was taken on an ice and preserved at -20° C. for the subsequent experiment.
Behavioral test: tail suspension activity was performed; the position 1 cm away from the tail of the mice was glued by an adhesive tape on the 9th day of the test, and the adhesive tape was penetrated by a steel needle, and hung in a dark box such that the mice were hung upside down; then the mice struggling times (total number of overturning from hanging) within 2 min were observed.
The mice were weighed 1 h later after the final administration; blood of inner canthus was taken via a capillary to detect the blood coagulation time.
Blood was taken to detect the content of 5-HT in serum via high-performance liquid chromatography. Cerebrum was taken on an ice and precooled and cleaned slightly with 0.5% sodium carboxymethylcellulose, and then sucked dry with a filter paper, and placed into a cryogenic tube, and preserved at -20° C. for further use, then the content of 5-HT in brain tissues was detected by high performance liquid chromatography.
5-HT test method: a sample was precipitated with 10% perchloric acid solution according to 1:1, and then centrifuged to take supernatant for test. Chromatographic conditions: the chromatographic column is a SHIMADZU VP-ODS C18 column (250*4.6 mm, 5 um), the mobile phase is a methanol-0.01 mol/L potassium acetate buffer solution (10:90, V/V, PH is adjusted to 4.00 with 0.2 mol/L citric acid) for gradient elution; the column temperature is 25° C., flow rate is 1.00 ml/min and test wavelength is 275 nm.

[8] = test system: ulcerative colitis mice; test: Mice ulcerative colitis (DSS); assay type: in vivo, BALB/c mice; conditions: DSS mice, 100 mg/kg ig
Text: Healthy male SPF-level BALB/c mice (8-week old and body mass: (20±2) g).
Modeling: the mice were randomly divided into […] at the end of the quarantine, 10 pieces for each group. The mice in the normal group drank normal water freely, and the rest groups of mice drank 1.0%-1.5% DSS solution freely for modeling, 7 d later after modeling, the mice in the modeling group drank normal water freely for 7 d, and 14 d served as a modeling period for four continuous periods, and the mice in the modeling group were administered at the same time.
End point of the experiment: experimental administration was performed for four periods, and dissection was performed on the 3rd and 4th day of the recovery period of the 4th period.
Test indicators: the mice were weighed twice a week after the beginning of the administration; diarrhea and hematochezia of the mice were observed, and times of hematochezia were recorded.
At the end of the experiment, the mice were dissected and weighed, and narcotized to take blood, then serum was preserved at -80° C. Spleen was taken and weighed to calculate the spleen index. The content of IL-1β in serum was detected via ELISA. Colorectum was cut and taken to measure the length of colorectum, then immobilized by formaldehyde and dyed by HE to detect the pathological change.

Structure (SMILES): O=C(Nc1cccc(Cl)c1)C1CCN(C(=O)c2ccc(Oc3ccccc3)cc2)CC1 [MAGLZ-II-16]
- content in the brain, ranking of the test substances [1]: highest
- content in the brain (tissue distribution) ([1]; 1.0 h): 0
- content in the brain (tissue distribution) ([1]; 2.0 h): 32.8
- content in the brain (tissue distribution) ([1]; 5.0 h): 16.9
- effect on reserpine-induced depression (conclusion) ([2]; 4, 8 and 16 mg/kg sc 6 d): has a certain effect
- Autonomic activity ([2]; high dose 16 mg/kg sc 6 d): 0.6±0.6
- Awakening ([2]; high dose 16 mg/kg sc 6 d): 2±0
- Eyelid closure ([2]; high dose 16 mg/kg sc 6 d): 0±0
- Fear ([2]; high dose 16 mg/kg sc 6 d): 0±0
- Finger contact ([2]; high dose 16 mg/kg sc 6 d): 1.6±0.8
- Head touch ([2]; high dose 16 mg/kg sc 6 d): 0.8±0.98
- Upright ([2]; high dose 16 mg/kg sc 6 d): 0.4±1.2
- Autonomic activity ([2]; low dose 4 mg/kg sc 6 d): 0±0
- Awakening ([2]; low dose 4 mg/kg sc 6 d): 2±0
- Eyelid closure ([2]; low dose 4 mg/kg sc 6 d): 0±0
- Fear ([2]; low dose 4 mg/kg sc 6 d): 0±0
- Finger contact ([2]; low dose 4 mg/kg sc 6 d): 1.4±0.92
- Head touch ([2]; low dose 4 mg/kg sc 6 d): 0.4±0.8
- Upright ([2]; low dose 4 mg/kg sc 6 d): 0±0
- Autonomic activity ([2]; middle dose 8 mg/kg sc 6 d): 0.2±0.6
- Awakening ([2]; middle dose 8 mg/kg sc 6 d): 1.8±0.6
- Eyelid closure ([2]; middle dose 8 mg/kg sc 6 d): 0±0
- Fear ([2]; middle dose 8 mg/kg sc 6 d): 0±0
- Finger contact ([2]; middle dose 8 mg/kg sc 6 d): 1.2±0.98
- Head touch ([2]; middle dose 8 mg/kg sc 6 d): 0.8±0.98
- Upright ([2]; middle dose 8 mg/kg sc 6 d): 0±0

Structure (SMILES): O=C(O)Cc1ccccc1Nc1c(Cl)cccc1Cl [Positive medicament, diclofenac sodium, reference compound]
- Pain threshold ([3]; 30 min after final administration): 22.32 ± 6.76 s
- Pain threshold ([3]; 60 min): 24.34 ± 8.19 s
- Pain threshold ([3]; 90 min): 22.64 ± 6.48 s
- Pain threshold ([3]; 120 min): 22.52 ± 6.91 s
- Pain threshold ([4]; 0 d): 12.71 ± 2.55 s
- Pain threshold ([4]; 1 d): 6.38±0.91^∗ s
- Pain threshold ([4]; 3 d): 8.05±1.23^∗ s
- Pain threshold ([4]; 7 d): 9.00±0.911^∗ s
- Writhing times ([5]; 1 h before 0.7% acetic acid ip, within 20 min): 24.5±12.9
- Latent time ([5]; time to first writhing): 358.5 ± 172.7 s
- Inhibition ratio ([5]; writhing inhibition): 37.7%

- IC50 [6]: 749 nM
Structure (SMILES): COc1cccc(NC(=O)C2CCN(C(=O)c3ccc(Oc4ccccc4)cc3)CC2)c1 [MAGLZ-II-03]

Structure (SMILES): O=C(Nc1ccccc1)C1CCN(C(=O)c2ccc(Oc3ccccc3)cc2)CC1 [MAGLZ-II-01]
- IC50 [6]: 45 nM
- content in the brain (tissue distribution) ([1]; 1.0 h): 0
- content in the brain (tissue distribution) ([1]; 2.0 h): 0.6
- content in the brain (tissue distribution) ([1]; 5.0 h): 0.9

Structure (SMILES): CN(C)CCc1c[nH]c2ccc(C[C@H]3COC(=O)N3)cc12 [Zolmitriptan, reference compound]
- Blood coagulation time ([7]; reserpine 0.2 mg/kg sc mice, 0.5 mg/kg ig 10 d, 1 h after final administration): 185.12±38.86 S
- brain tissue 5-HT ([7]; reserpine mice, 0.5 mg/kg ig 10 d): 1.93 ± 0.37 nmol/g
- Times of tail suspension (struggling times within 2 min) ([7]; reserpine mice, 0.5 mg/kg ig, 9th day): 18.13 ± 3.94

- IC50 [6]: 126 nM
Structure (SMILES): CCCC(=O)Oc1cccc(C(=O)N2CCC(C(=O)Nc3cccc(Cl)c3)CC2)c1 [MAGLZ-II-11F]

- IC50 [6]: 27 nM
- content in the brain (tissue distribution) ([1]; 1.0 h): 0
- content in the brain (tissue distribution) ([1]; 2.0 h): 1.2
- content in the brain (tissue distribution) ([1]; 5.0 h): 3.7
Structure (SMILES): Cc1cc(C)cc(NC(=O)C2CCN(C(=O)c3ccc(Oc4ccccc4)cc3)CC2)c1 [MAGLZ-II-02]

Structure (SMILES): O=C(Nc1cc(Cl)cc(Cl)c1)C1CCN(C(=O)c2ccc3ccccc3c2)CC1 [MAGLZ-II-25]
- IC50 [6]: 139 nM

Structure (SMILES): O=C(Nc1ccc(Cl)c(Cl)c1)C1CCN(C(=O)c2ccc3ccccc3c2)CC1 [MAGLZ-II-24]
- IC50 [6]: 275 nM

- IC50 [6]: 333 nM
Structure (SMILES): COc1cccc(C(=O)N2CCC(C(=O)Nc3cccc(Cl)c3)CC2)c1 [MAGLZ-II-14]

Structure (SMILES): Nc1ccc(O)c(C(=O)O)c1 [Mesalazine, reference compound]
- Total times of hematochezia within the four periods [8]: 32.80±4.96
- Colon length ([8]; four periods): 6.66±0.68 cm
- IL-1 content ([8]; serum, ELISA): 48.33 ± 6.49 pg/mL

- IC50 [6]: 252 nM
Structure (SMILES): O=C(Nc1cccc(Cl)c1)C1CCN(C(=O)c2ccc3cc(O)ccc3c2)CC1 [MAGLZ-II-29]

- IC50 [6]: 11 nM
Structure (SMILES): O=C(c1cccc(O)c1)N1CCC(c2nc3cc(Cl)ccc3o2)CC1 [MAGLZ-II-30]

Structure (SMILES): N[C@H](Cc1ccc(O)cc1)C(=O)Oc1cccc(C(=O)N2CCC(C(=O)Nc3cccc(Cl)c3)CC2)c1 [MAGLZ-II-11J]
- IC50 [6]: 1600 nM

Source: patent publication US20230090255A1, “MAGL INHIBITOR, PREPARATION METHOD THEREFOR AND USE THEREOF” (LUNAN PHARMACEUTICAL GROUP CORPORATION, priority 2019, published 2023)
